Values of other authors in patent publication US6423339B1, “Liquisolid systems and methods of preparing same” (priority 1996, dated 2002).

Tests used:
[1] = diuretic

Row | SMILES | Solubility in alcohol (descriptive) | Solubility in chloroform (descriptive) | Volume of alcohol in which 1 gram of drug is soluble (per 1 gram of drug) | Volume of chloroform in which 1 gram of drug is soluble (per 1 gram of drug) | Solubility in water (descriptive) | also measured
1 | Cc1ccc(C)c(OCCCC(C)(C)C(=O)O)c1 [Gemflbrozil] | – | – | – | – | practically water-insoluble (1 part solute into 10,000 or more parts of water) | –
2 | NS(=O)(=O)c1cc2c(cc1Cl)NCNS2(=O)=O [Hydrochlorothiazide] | – | – | – | – | – | Potency relative to chlorothiazide [1]: 10 times
3 | CC(=O)S[C@@H]1CC2=CC(=O)CC[C@]2(C)[C@H]2CC[C@@]3(C)[C@@H](CC[C@@]34CCC(=O)O4)[C@H]12 [Spironolactone] | soluble | freely soluble | – | – | practically insoluble | Solubility in fixed oils (descriptive): slightly soluble

More lines, main results first:

Row | Solubility in alcohol (descriptive) | Solubility in chloroform (descriptive) | Volume of alcohol in which 1 gram of drug is soluble (per 1 gram of drug) | Volume of chloroform in which 1 gram of drug is soluble (per 1 gram of drug) | SMILES | Solubility in water (descriptive) | also measured
4 | soluble | soluble | – | – | CCOC(=O)C(C)(C)Oc1ccc(Cl)cc1 [Clofibrate] | insoluble (1 part solute into 10,000 or more parts of water) | Solubility in other common organic solvents (descriptive): soluble; Stability (descriptive) (liquid drug): stable
5 | – | – | 150 mL | 200 mL | C[C@]12C=CC(=O)C=C1CC[C@@H]1[C@@H]2C(=O)C[C@@]2(C)[C@H]1CC[C@]2(O)C(=O)CO [Prednisone] | very slightly soluble | –
6 | – | – | 92.5 mL | more than 10,000 ml | CN1C(CCl)Nc2cc(Cl)c(S(N)(=O)=O)cc2S1(=O)=O (centres unmarked) [Methyclothiazide] | – | Solubility in acetone (descriptive): freely soluble; pka: 9.4; Volume of ether in which 1 gram of drug is soluble (per 1 gram of drug): 2,700 ml; Volume of water in which 1 gram of drug is soluble (per 1 gram of drug): more than 10,000 ml
